These results are taken from US9078851B2, “Composition for preventing or treating a spinal cord injury” (UNIVERSITY-INDUSTRY COOPERATION GROUP OF KYUNG HEE, priority 2009, dated 2015).

In test [1] the test system is cytokines at spinal cord injury site. The experiment in a line: Rat cytokine antibody array analysis of spinal cord tissue. It counts as in vivo. The note with it: tail vein injection. The protocol:
(§1) For the present experiment, male white mice (Sprague-Dawley 240-250 g, 7 weeks, 10 mice) were under general anesthetics by an intraperitoneal injection of Ketamin (80 mg/kg, Yuhan Corporation) and Rompun (7.4 mg/kg, Bayer Korea Corporation). Laminectomy was performed at spine T9-10 level to expose a spinal cord keeping intact dura. And then, rat was put on Spinal cord dropping device (NYU); spine processes at T8 and T11 sites were fixed by using a clamp, respectively; then, a rod (diameter 2 mm, weight 10 g) was dropped from 25 mm height vertical to dorsal part of spinal cord followed by suturing injury site muscle and skin. The rat of Sham-operated control group was performed only laminectomy at same area without damaging spinal cord injury (marked by ‘sham” in figures; hereinafter, the same as above).
Substance P (marked by ‘SP’ in figures; hereinafter, the same as above) dissolved in saline of 5 nmol/kg concentration was injected through tail vein at immediately, 24 hours, and 48 hours after a spinal cord injury for experimental groups. At sham control group, same volume of saline (marked by ‘vehicle’ in figures; hereinafter, the same as above) without Substance P was injected at same time points. Operation were performed on an electric heating pad of 37° C., and then rat were transferred to cage after awake from the anesthetic. • (2) Preparation of Tissue
A rat cytokine antibody array analysis was performed in order to investigate an effect of Substance P in expressing cytokine.
At immediately, 1 d, and 2d, Substance P or saline (the same volume without Substance P) was injected through tail vein using the same method as (1) of Example 1. After operating, the experimental group (4 rats/group) and the control (4 rats/group) were sacrificed at 1 d and 5d, respectively. The spinal cord tissue (1 cm) obtained from an animal was homogenized with a dissolution buffer solution (10% glycerol, 20 mM Tris [pH 8.0], 137 mM NaCl, 1% Nonidet P-40, 0.5 mM EDTA, 10 mM Na2P2O7, 10 mM NaF, 1 μg/ml aprotinin, 10 μg/ml leupeptin, 1 mM vanadate and 1 mM PMSF). A protein amount of supernatant was determined by BCA assay (Pierce). Subsequently, a cytokine assay was performed according to instructions of Ray Biotech Morcross GA protocol. A membrane was blocked with a blocking buffer solution, then 150 μg of a protein sample was added, and reacted for 2 hours at a room temperature. The membrane was washed and 1 ml of primary antibody conjugated with a biotin was added, and placed at 4° C. overnight. Next day, the membrane was washed, and reacted with 2 ml of streptoavidin conjugated with horseradish peroxidase for 30 minutes at a room temperature. The membrane was developed using enhanced chemiluminescence-type solution, and the film was exposed to Radiography. Using USA NIH Image and Image J software (Hong et al., 2009), density quantification of array was performed.

For test [2], the system named is apoptosis of nerve cells and oligodendrocytes. The experiment in a line: TUNEL staining of apoptosis at spinal cord injury site. It counts as in vivo, rat. Conditions: tail vein injection. The protocol: as §1
(§2) Substance P (marked by ‘SP’ in figures; hereinafter, the same as above) dissolved in saline of 5 nmol/kg concentration was injected through tail vein at immediately, 24 hours, and 48 hours after a spinal cord injury for experimental groups. At sham control group, same volume of saline (marked by ‘vehicle’ in figures; hereinafter, the same as above) without Substance P was injected at same time points. Operation were performed on an electric heating pad of 37° C., and then rat were transferred to cage after awake from the anesthetic. • (2) Preparation of Tissue […]

Test [3] relates to IL-10 expression in nerve cell. The experiment in a line: Immunofluorescence staining of IL-10 in nerve cells and microglia/macrophages after spinal cord injury. Conditions: tail vein injection; one day after spinal cord injury. It counts as in vivo, rat. The protocol:
as §1, §2

The test system of the next test is caspase-3. The experiment in a line: Western blot of cleaved caspase-3 in spinal cord tissue. It counts as in vivo, rat. Conditions: tail vein injection, one day and five days after injury. The protocol:
as §1, with “above). […]” for “above).”
(2) Substance P or saline (the same volume without Substance P) was injected to a tail vein of mice, respectively at immediately, 1 d, 2 ds after a spinal cord injury, using the same method as (1) of Example 1. […] The amounts of proteins in supernatant were determined by using BCA assay (Pierce). […] At this time, β-Tubulin was used as an inner comparing group, and each result were determined by performing four independent experiments.
Background: Immunoblotting shows a protein as a band on a membrane.

The mark [4] stands for this setting: five days after spinal cord injury, vs control.
The mark [5] stands for this setting: one day after spinal cord injury.

For the substance Substance P, the “amount of IL-10” value in test [1] (5 d after spinal cord injury) is reported as “higher than the control”. For the same substance, in test [1] (setting [4]), the “expression of IFN-γ” value is on record as “slightly decreased” and the “expression of IL-1α” value is “slightly decreased”. For the same substance, in test [1] (setting [5]), the “amount of IL-6” value is on record as “meaningfully increased”, the “increase of amount of IL-4” value was “two times” and the “increase of amount of IL-10” value is “ten times”. Moreover, the apoptosis of oligodendrocytes entry in test [2] (five days after damaging) is “significantly decreased”. Moreover, the “apoptosis of nerve cells” value in test [2] (one day after damaging) is on record as “decreased”. Moreover, in test [3], the “IL-10 expression in cells” value is “specifically expressed at a nerve cell”. For the same substance, the “activation of caspase-3” value with caspase-3 was “significantly decreased”.
